Data: US5801180A, “Quinazoline derivatives” (priority 1991, dated 1998)
Structures can show the parent of a compound that is named as a salt.

The compounds below were run against T1, cGMP-PDE prepared from the swine aeorta (Sus scrofa, UniProt A0A287B475) (assay: Enzyme inhibiting action with the use of cGMP-PDE prepared from the swine aorta). Conditions: CaM-independent cGMP-PDE, 1 mM EGTA, 1 μM cGMP substrate, DMSO 4% or below.
T1 construct: The swine aeorta was sliced; from tissue; host or cells: swine aorta, 100000×g supernatant, DEAE-Toyopearl 650S fraction
Type: biochemical
Experimental: Enzyme inhibiting action with the use of cGMP-PDE prepared from the swine aeorta
The enzymatic activity of the cGMP-PDE prepared from the swine aeorta was determined according to the method of Thompson et al. ^(1). The enzymatic activity thereof was determined in the presence of 1 mM EGTA by the use of 1 μM cGMP as a substrate. The compound of the present invention was dissolved in DMSO, added to the reaction liquid and examined for the inhibitory activity. The final concentration of DMSO in the reaction liquid was adjusted to 4% or below. (1) Thompson, W. J. and Strada, S. J., Cyclic Nucleotide Phosphodiesterase (PDE), in Methods of Enzymatic Analysis, vol 4, p.127-234, 1984.
The swine aeorta was sliced, followed by the addition of 10 times by volume as much Buffer A (20 mM Tris/HCl, 2 mM Mg acetate, 1 mM Dithiothreitol, 5 mM EDTA, 1400 TIU/liter aprotinin, 10 mg/liter leupeptin, 1 mM benzamidine, 0.2 mM PMSF, pH 7.5). The obtained mixture was homogenized and the homogenate was centrifuged at 100000×g for one hour. The obtained supernatant was supplied a DEAE-Toyopearl 650S (Tosoh, Tokyo, Japan) column. After the column was washed with Buffer B (50 mM Tris/HCl, 0.1 mM EGTA, 2 mM Mg acetate, 1 mM Dithiothreitol, 0.2 mM PMSF, pH 7.5), gradient elution with 0.05 to 0.4M NaCl was conducted. Thus, CaM-independent cGMP-PDE fractions were obtained.

Row | SMILES | IC50
1 | COc1cc2c(NCc3cc4c(cc3Cl)OCO4)ncnc2c(OC)c1OC [Example 33, 4-(2-Chloro-4,5-methylenedioxybenzyl)amino-6,7,8-trimethoxyquinazoline] | 370 nM
2 | COc1cc2ncnc(NCc3ccc4c(c3)OCO4)c2cc1SC [Example 74, 4-(34-Methylenedioxybenzyl)amino-6-methylthio-7-methoxyquinazoline] | 350 nM
3 | Nc1cc(CNc2ncnc3ccc(Cl)cc23)ccc1Cl [Example 151, 4-(3-Amino-4-chlorobenzyl)amino-6-chloroquinazoline] | 81 nM
4 | COc1cc2c(NCc3ccc4c(c3)OCO4)nc(N3CCC(C(=O)O)CC3)nc2c(OC)c1OC [Example 231, 2-(4-Carboxypiperidino)-4-(3,4-methylenedioxybenzyl)amino-6,7,8-trimethoxyquinazoline] | 410 nM
5 | COc1cc2c(NCc3ccc4c(c3)OCO4)nc(/C=C(\C)C(=O)O)nc2c(OC)c1OC [Example 127, (E)-2-(2-Carboxy-1-propenyl)-4-(3,4-methylenedioxybenzyl)amino-6,7,8-trimethoxyquinazoline] | 110 nM
6 | Clc1ccc2nc(-n3ccnc3)n(Cc3ccc4c(c3)OCO4)c2c1 [Example 278, 6-Chloro-2-(imidazol-1-yl)-1-(3,4-methylenedioxybenzyl)benzimidazole] | 250 nM
7 | COc1cc2c(NCc3ccc4c(c3)OCO4)nc(Cl)nc2c(OC)c1OC [Example 95, 2-Chloro-4-(3,4-methylenedioxybenzyl)amino-6,7,8-trimethoxyquinazoline] | 200 nM
8 | CCOC(=O)c1ccc2ncnc(NCc3ccc4c(c3)OCO4)c2c1 [Example 68, 4-(3,4-Methylenedioxybenzyl)amino-6-ethoxycarbonylquinazoline] | 620 nM
9 | O=C(O)C1CCN(c2nc3ccc(Cl)cc3n2Cc2ccc3c(c2)OCO3)CC1 [Example 280, 2-(4-Carboxypiperidino)-6-chloro-1-(3,4-methylenedioxybenzyl)benzimidazole] | 250 nM
10 | NC(=O)c1ccc2ncnc(NCc3ccc4c(c3)OCO4)c2c1 [Example 133, 4-(3,4-Methylenedioxybenzyl)amino-6-carbamoylquinazoline] | 770 nM
11 | Clc1ccc2ncnc(NCc3ccc4nc[nH]c4c3)c2c1 [Example 60, 4-(Benzimidazol-5-ylmethyl)amino-6-chloroquinazoline] | 180 nM
12 | N#Cc1ccc2nc(-n3ccnc3)nc(NCc3ccc4c(c3)OCO4)c2c1 [Example 193, 2-(Imidazol-1-yl)-4-(3,4-methylenedioxybenzyl)amino-6-cyanoquinazoline] | 0.8 nM
13 | COc1ccc(CNc2nc(/C=C/C(=O)O)nc3ccc(Cl)cc23)cc1Cl [Example 124, (E)-2-(2-carboxyvinyl)-4-(3-chloro-4-methoxybenzyl)amino-6-chloroquinazoline] | 8 nM
14 | CS(=O)(=O)c1ccc2ncnc(NCc3ccc4c(c3)OCO4)c2c1 [Example 138, 4-(3,4-Methylenedioxybenzyl)amino-6-methysulfonylquinazoline] | 810 nM
15 | COCCOc1nc(NCc2ccc3nc[nH]c3c2)c2cc(C#N)ccc2n1 [Example 171, 2-(2-Methoxyethoxy)-4-(benzimidazol-5-yl)methylamino-6-cyanoquinazoline] | 0.4 nM
16 | OCc1ccc2ncnc(NCc3ccc4c(c3)OCO4)c2c1 [Example 136] | 930 nM
17 | COc1ccc(CNc2ncnc3ccc(Cl)cc23)cc1OC [Example 59, 4-(3,4-Dimethoxybenzyl)amino-6-chloroquinazoline] | 270 nM
18 | N#Cc1ccc2nc(N3CCOCC3)nc(NCc3ccc4c(c3)OCO4)c2c1 [Example 181, 2-Morpholino-4-(3,4-methylenedioxybenzyl)amino-6-cyanoquinazoline] | 5 nM
19 | COc1ccc(CNc2nc(/C=C(\C)C(=O)O)nc3ccc(Cl)cc23)cc1Cl [Example 125, (E)-2-(2-Carboxy-1-propenyl)-4-(3-chloro-4-methoxybenzyl)amino-6-chloroquinazoline] | 9 nM
20 | O=C(O)C1CCN(c2nc(NCc3ccc4c(c3)OCO4)c3cccnc3n2)CC1 [Example 262] | 880 nM
21 | COc1ccc(CNc2nc(N(C)CCCC(=O)O)nc3ccc(C#N)cc23)cc1Cl [Example 243, 2-[N-(3-Carboxypropyl)-N-methylamino]-4-(3-chloro-4-methoxybenzyl)amino-6-cyanoquinazoline] | 0.15 nM
22 | O=C(O)C1CCN(c2nc(NCc3ccc4[nH]cnc4c3)c3cc(Cl)ccc3n2)CC1 [Example 236, 2-(4-Carboxypiperidino)-4-(benzimidazol-5-yl)methylamino-6-chloroquinazoline] | 6 nM
23 | OCCCCOc1nc(NCc2ccc3c(c2)OCO3)c2cc(Cl)ccc2n1 [Example 174, 2-(4-Hydroxybutoxy)-4-(3,4-methylenedioxybenzyl)amino-6-chloroquinazoline] | 4 nM

Other lines, results leading:

Row | IC50 | SMILES
24 | 1 nM | C/C(=C\c1nc(NCc2ccc3c(c2)OCO3)c2cc(Cl)ccc2n1)C(=O)O [Example 120, (E)-2-(2-Carboxy-1-propenyl)-4-(3,4-methylenedioxybenzyl)amino-6-chloroquinazoline]
25 | 650 nM | O=C(O)c1nc(NCc2ccc3c(c2)OCO3)c2cc(Cl)ccc2n1 [Example 121, 2-Carboxy-4-(3,4-methylenedioxybenzyl)amino-6-chloroquinazoline]
26 | 5 nM | OCC1CCCN1c1nc(NCc2ccc3c(c2)OCO3)c2cc(Cl)ccc2n1 (centres unmarked) [Example 190, 2-(9-Hydroxymethylpyrrolidin-1-yl)-4-(3,4-methylenedioxyybenzyl)amino-6-chloroquinazoline]
27 | 5 nM | O=C(O)/C=C/c1nc(NCc2ccc3c(c2)OCO3)c2cc(Cl)ccc2n1 [Example 122, (E)-2-(2-Carboxyvinyl)-4-(3,4-methylenedioxybenzyl)amino-6-chloroquinazoline]
28 | 49 nM | N#Cc1ccc2nc(N)nc(NCc3ccc4c(c3)OCO4)c2c1 [Example 201, 2-Amino-4-(3,4-methylenedioxybenzyl)amino-6-cyanoquinazoline]
29 | 4 nM | CCCCCNc1nc(NCc2ccc3c(c2)OCO3)c2cc(Cl)ccc2n1 [Example 194, 2-Pentylamino-4-(3,4-methylenedioxybenzyl)amino-6-chloroquinazoline]
30 | 9 nM | CCOC(=O)CCCNc1nc(NCc2ccc3c(c2)OCO3)c2cc(Cl)ccc2n1 [Example 214, 2-(3-Ethoxycarbonylpropyl)amino-4-(3,4-methylenedioxybenzyl)amino-6-chloroquinazoline]
31 | 3 nM | CCOC(=O)/C=C/c1nc(NCc2ccc3c(c2)OCO3)c2cc(Cl)ccc2n1 [Example 114, (E)-2-(2-Ethoxycarbonylvinyl)-4-(3,4-methylenedioxybenzyl)amino-6-chloroquinazoline]
32 | 29 nM | CCOC(=O)C1CCN(c2nc(NCc3ccc4c(c3)OCO4)c3cc(Cl)ccc3n2)CC1 [Example 206, 2-(4-Ethoxycarbonylpiperidino)-4-(3,4-methylenedioxybenzyl)amino-6-chloroquinazoline hydrochloride]
33 | 26 nM | COc1nc(NCc2ccc3c(c2)OCO3)c2cc(C#N)ccc2n1 [Example 166, 2-Methoxy-4-(3,4-methylenedioxybenzyl)amino-6-cyanoquinazoline]
34 | 16 nM | CN(CCO)c1nc(NCc2ccc3c(c2)OCO3)c2cc(Cl)ccc2n1 [Example 189, 2-[N-(2-Hydroxyethyl)-N-methylamino]-4-(3,4-methylenedioxybenzyl)amino-6-chloroquinazoline]
35 | 23 nM | CCOC(=O)CNc1nc(NCc2ccc3c(c2)OCO3)c2cc(Cl)ccc2n1 [Example 213, 2-(Ethoxycarbonylmethyl)amino-4-(3,4-methylenendioxybenzyl)amino-6-chloroquinazoline]
36 | 6.5 nM | O=C(O)C1CCN(c2nc(NCc3ccc4c(c3)OCO4)c3cc(Cl)ccc3n2)CC1 [Example 222, 2-(4-Carboxypiperidino)-4-(3,4-methylenedioxybenzyl)amino-6-chloroquinazoline]
37 | 2 nM | CCOC(=O)/C(C)=C/c1nc(NCc2ccc3c(c2)OCO3)c2cc(Cl)ccc2n1 [Example 112, (E)-2-(2-Ethoxycarbonyl-1-propenyl)-4-(3,4-methylenedioxybenzyl)amino-6-chloroquinazoline]
38 | 32 nM | N#Cc1ccc2nc(Cl)nc(NCc3ccc4c(c3)OCO4)c2c1 [Example 93, 2-Chloro-4-(3,4-methylenedioxybenzyl)amino-6-cyanoquinazoline]
39 | 20 nM | Clc1ccc2nc(-n3ccnc3)nc(NCc3ccc4c(c3)OCO4)c2c1 [Example 192, 2-(1-Imidazolyl)-4-(3,4-methylenedioxybenzyl)amino-6-chloroquinazoline]
40 | 14 nM | O=C(O)CNc1nc(NCc2ccc3c(c2)OCO3)c2cc(Cl)ccc2n1 [Example 237, 2-(Carboxymethyl)amino-4-(3,4-methylenedioxybenzyl)amino-6-chloroquinazoline]
41 | 17 nM | CCOC(=O)CCCCCNc1nc(NCc2ccc3c(c2)OCO3)c2cc(Cl)ccc2n1 [Example 216, 2-(5-Ethoxycarbonylpentyl)amino-4-(3,4-methylenedioxybenzyl)amino-6-chloroquinazoline]
